Laboratory results as given in paper PMC2990584, “Phase Ib study of CP-868,596, a PDGFR inhibitor, combined with docetaxel with or without axitinib, a VEGFR inhibitor” (British Journal of Cancer, 2010).

Legend:
advanced solid tumours = assay: Antitumour activity (RECIST, FDG-PET, CT); format: in vivo, human; conditions: single patient, metastatic epithelioid sarcoma
Experimental: Radiological assessments were conducted at screening and within 7 days prior to cycle 1 docetaxel dose for DLs 1–3, and at screening and cycle 2 day 1 for DL 4. Subsequent assessments were every other cycle for all DLs.

[1] = Pharmacokinetics in patients (HPLC/tandem MS, non-compartmental); format: in vivo, human
Experimental: In DL 4, sampling was conducted on day 8 (CP-868,596, axitinib, and docetaxel) and day 9 (CP-868,596 and axitinib) of cycle 1: samples were collected at 0 h (predose) and 1, 1.75, 3, 4.5, and 6.5 h post-dose on day 8 and at 0 h (predose) on day 9 for CP-868,596 and axitinib. Docetaxel concentrations were assessed at 1 (end of infusion), 1.75, and 6.5 h post-dose on day 8. Concentrations of CP-868,596, docetaxel, and axitinib were determined using validated HPLC/tandem mass spectrometry (HPLC/TMS) methods. Analytes were detected using an Applied-Biosystem Sciex API 3000/4000 LC/TMS system (MDI SCIEX, Concord, ON, Canada) operating in positive ion Electrospray mode. Non-compartmental pharmacokinetic analysis was performed using WinNonlin, version 3.2 (Pharsight, Mountain View, CA, USA). […] Tmax, half-life (t1/2), AUC0–48, and AUC0–infinity. […] Descriptive statistics were used when analysing patient demographics, safety, and tumour response data. Paired t-test was used to assess the impact of co-administration of docetaxel on CP-868,596 pharmacokinetics.

tumour vasculature = assay: DCE-MRI tumoural analysis; format: in vivo, human; conditions: DL 2, eight patients
Experimental: The DCE time course in the tumour was analysed on a pixel-by-pixel basis by fitting the data to the Kety equation and by integrating the area under the initial (i.e. the first 90 s) uptake curve. The contrast-agent concentration time course in plasma and tissue was inferred from the change in T1-weighted signal as a function of time. The Kety equation fitted the tissue contrast-agent time course to a two-compartment model: […] Ct are plasma and tissue concentration, respectively, K^trans is volume endothelial transfer constant between plasma and the extracellular extravascular space (EES), and Ve is fractional EES volume ([Ashton et al, 2008]).

PDGFR signalling pathway = assay: Blood biomarkers of the PDGFR signalling pathway (SDS-PAGE, LI-COR); format: in vivo, human
Experimental: Blood samples for the evaluation of biomarkers potentially related to the PDGFR signalling pathway (serum Src homology phosphatase (SHP)2, phopho(p)-SHP2, pAKT, and pS6) were collected within 4 days of baseline and on day 14 in each cohort. Protein levels were analysed using gel electrophoresis (SDS–PAGE) and the LI-COR immunodetection system with appropriate antibodies.

PDGFR-β tyrosine kinase = target: PDGFR-β tyrosine kinase; design: method as in Lewis et al, 2009; conditions: ref Lewis et al, 2009, cited from earlier work
[2] = tested on: patients with advanced cancers; design: method as in Lewis et al, 2009; conditions: ref Lewis et al, 2009, cited from earlier work
xenograft models = tested on: xenograft models; design: method as in Whalen et al, 2005; conditions: ref Whalen et al, 2005; cited from earlier work
[3] = tested on: patients with advanced solid tumors; design: method as in Rugo et al, 2005; conditions: ref Rugo et al, 2005; cited from earlier work
[4] = tested on: PDGFR-β overexpressing mesothelioma cell lines; design: method as in Wilmink and Richel, 2008; conditions: in vitro; ref Wilmink and Richel, 2008; cited from earlier work

With CC1(COc2ccc3c(c2)ncn3-c2ccc3cccc(N4CCC(N)CC4)c3n2)COC1 [CP-868,596] the FDG-PET response (advanced solid tumours) was “partial metabolic response”, the “pharmacokinetic parameters and plasma concentration profiles on co-administration” value ([1]; co-administration of docetaxel or docetaxel plus axitinib) was “unaffected” and the “impact of co-administration of docetaxel on Cmax and AUC0–tau” value ([1]; human, in vivo) was “no significant impact”. For the same compound, the “perfused AUC, median percentage change at day 14 relative to baseline” value (tumour vasculature) was −4.4%, the “perfused K^trans, median percentage change at day 14 relative to baseline” value (tumour vasculature) was 12.7% and the “tumour volume, median percentage change at day 14 relative to baseline” value (tumour vasculature) was 14.3. For the same compound, the “vascularised volume, median percentage change at day 14 relative to baseline” value (tumour vasculature) was 16.6, the “SHP and pSHP relative to baseline” value (PDGFR signalling pathway; day 14, DL 1 and DL 2, n=10) was “unchanged” and the “levels of pS6 in peripheral blood mononuclear cells relative to baseline” value (PDGFR signalling pathway; day 14, DL 1 and DL 2, n=11, P=0.021) was “significantly decreased”. For the same compound, the “levels of pAKT relative to baseline” value (PDGFR signalling pathway; day 14, DL 1 and DL 2, n=12) was “non-significant increase”, the IC50 (PDGFR-β tyrosine kinase; PDGFR-β tyrosine kinase) was 0.4 ng ml^–1 and the “selectivity for PDGFR vs other related kinases” value (PDGFR-β tyrosine kinase) was 50–100 fold. For the same compound, the most common toxicities [2] was “nausea, vomiting, diarrhoea, and transaminitis”, the recommended dosage ([2]; single agent, with food) was 100 mg twice daily (BID) and the “Dose-limiting toxicities (DLTs) identified” value ([2]; single agent) was “haematuria, transaminitis, insomnia, and nausea/vomiting”. The “cytotoxicity of docetaxel and gemcitabine on combination” value (xenograft models) was “increased”.

In the case of CNC(=O)c1ccccc1Sc1ccc2c(/C=C/c3ccccn3)n[nH]c2c1 [axitinib], the main toxicities [3] is given as “fatigue, nausea, diarrhoea, and hypertension”.

In the case of Cc1ccc(NC(=O)c2ccc(CN3CCN(C)CC3)cc2)cc1Nc1nccc(-c2cccnc2)n1 [imatinib], the effect on cells [4] is listed as “induced cytotoxicity and apoptosis”.
